Laboratory results reported in PMC11510591, “In Vitro Evaluation of Pharmacokinetic Properties of Selected Dual COX-2 and 5-LOX Inhibitors” (Pharmaceuticals, 2024).
≈ marks a conversion by molar mass, not a printed value. Where “and” joins values, the source holds several entries; their conditions need not be identical. Equal entries are not always repeated. Marks after values point to notes of the source that are not given here.

Columns and labels:
[1] = PAMPA test (hexadecane membrane), passive gastrointestinal absorption; format: in vitro ADME; details: for Papp at 5 h, 0.05 mM / –logPe: donor pH 5.5, acceptor pH 7.4, 5 h, room temperature; for Papp at 5 h, 0.05 mM: read-out: Pe (effective passive permeability coefficient)
Description: The PAMPA test uses a 96-well plate coated with an impregnated filter material, forming an artificial membrane that separates donor and acceptor compartments. Egg lecithin in dodecane is commonly used to simulate membrane lipids, while hexadecane is effective for mimicking gastrointestinal membranes. […] Therefore, hexadecane dissolved in hexane was chosen in this study.
The phosphate buffer solution was prepared by dissolving 0.5292 g of NaH2PO4 × H2O and 0.0234 g of Na2HPO4 in purified water (200 mL). The phosphate buffer was divided into two portions, and the pH was adjusted to pH 5.5 and pH 7.4 using o-phosphoric acid. The donor solutions were prepared by diluting the stock solutions (5 mM DMSO solutions) with the buffer pH 5.5 to obtain the final concentration of 0.05 mM (the DMSO concentration in the donor solutions was 1%), while the acceptor solution was prepared as a 1% DMSO solution in the buffer pH 7.4. The use of DMSO as a cosolvent in PAMPA is necessary in cases of low-soluble compounds. It is usually used in concentrations up to 5% [25, 55, 56, 57].
The PAMPA test was performed according to the literature procedure using a 96-well microtiter polycarbonate filter plate (Merck Millipore, Carrigtwohill, Ireland) that was impregnated with 15 µL of a hexadecane/hexane (5:95, v/v) solution [52]. Donor solutions (300 µL per well) were transferred into each well of the donor plate. Acceptor solution was transferred into each well (300 µL per well) of the acceptor plate (MSSACCEPTOR, Millipore, Burlington, MA, USA) and covered by the donor plate to create a PAMPA sandwich. The system was incubated at room temperature for 5 h at a vibratory mixer. After incubation, the PAMPA sandwich was dissociated, and concentrations of all tested compounds in each well, as well as in the starting solutions, were determined using the HPLC method (Section 3.3.1).
The concentrations of tested compounds in the starting solutions, as well as in the donor and acceptor sections after incubation, were determined by the HPLC method on the Dionex Ultimate 3000 (Thermo Fisher Scientific, Waltham, MA, USA) equipped with a quaternary pump, autosampler, and DAD detector using a ZORBAX Eclipse XDB-C18 4.6 × 150 mm, 5 µm column (Agilent Technologies, Santa Clara, CA, USA).
R represents the retention, which is defined as the fraction of the tested compound retained in the PAMPA membrane (filters and plate materials), CD(t) is the concentration of a tested compound in a donor compartment after incubation time t, CA(t) is the concentration of a tested compound in an acceptor compartment after incubation time t, while CD(0) represents the concentration of a tested compound in a donor compartment at the beginning of the incubation (starting solution).

[2] = target: T1, human serum albumin (HSA) (Homo sapiens, UniProt P02768); assay: Differential pulse voltammetry (DPV), interaction with HSA; format: binding; details: compound 0.05 mmol/L, PBS pH 7.4, HSA 0.05–10 μmol/L; for fraction unbound at 0.05 mmol/L: human, human serum albumin solution in PBS, read-out: % Bound Drug (converted)
T1 construct: purchased Sigma-Aldrich
Description: The electrochemical oxidation of the tested compounds at a concentration of 0.05 mmol/L in PBS buffer pH 7.4 was investigated by differential pulse voltammetry (DPV). […] For all tested compounds, a preliminary study of the interaction with HSA was performed at a concentration of 0.05 mmol/L and different HSA concentrations (0.05–10 μmol/L) using DPV. […] It has been reported that the shift in the potential of an electroactive ligand is a suitable criterion to determine the mode of the macromolecule–ligand interaction. In this context, a positive shift in potential is an indication of hydrophobic interaction of investigated compounds with HSA [34]. The decrease in peak current could be due to the formation of a non-electroactive supramolecular compound by the drug–protein interaction, which reduces the concentration of free drug.
The voltammetric measurements were carried out with the µAutolab analyzer (EcoChemie, Utrecht, The Netherlands). A three-electrode system with a GCE working electrode, an Ag/AgCl reference electrode, and a Pt-auxiliary electrode was used. Before each experiment, the GCE was manually polished with an aqueous slurry of Al2O3 powder (particle size of 0.05 μm) on a smooth polishing pad, sonicated in deionized water, and then treated in absolute ethanol. Phosphate buffer saline (PBS) pH 7.4 was used as the supporting electrolyte. The experiments were carried out with deaerated PBS buffer. A stock solution of HSA in PBS at a concentration of 0.1 mmol/L was used. […] The interaction between tested compounds and HSA was examined in PBS solution, using solutions of tested compounds in a concentration of 0.05 mmol/L and HSA solution with a concentration in the range of 0.05–10 μmol/L.
The percentage of free compound (Equation (4)) was calculated from the ratio of the current intensity (IINT) for a given compound concentration (0.05 mmol/L) in the presence of albumin to the signal obtained at the same compound concentration only in the presence of the supporting electrolyte (PBS buffer) (IC).

[3] = Stability in acidic medium (0.01 M HCl); format: physicochemical; details: for The Decrease in Peak Area (%): 0.01 M HCl pH 2, 2 h; for Peak Area, t: 0.01 M HCl pH 2, after 2 h; for Peak Area, t0: 0.01 M HCl pH 2, start of incubation
Description: In order to test gastric stability, compounds were incubated in 0.01 M HCl (pH = 2) for 2 h. Moreover, 0.01 M HCl was chosen because this acid is naturally present in the stomach and simulates its pH (between 1 and 3), while incubation time (2 h) corresponds to the average retention of drugs in the stomach after an oral administration. Peak areas at the beginning (t0) and at the end of the incubation (t) and the decrease in peak areas between these two time points are presented in Table 5.
Acidic medium was simulated by a 0.01 M HCl solution, which was prepared by diluting 0.1 M HCl with distilled water. Stock solutions of tested compounds (5 mM DMSO solutions) were diluted with the medium to obtain a concentration of 0.05 mM. Tested compounds were investigated immediately after preparation (t0) and after a defined incubation time (t) by injecting these solutions into the HPLC chromatograph in duplicates (the HPLC method used was the same as described in Section 3.3.1). The difference between peak areas at t0 and t time points and the eventual occurrence of additional chromatographic peaks after incubation were analyzed.

[4] = Solubility in water; format: physicochemical; details: distilled water, thermodynamic from solid, room temperature
Description: As discussed in the previous section, all tested compounds are dominantly unionized in the whole range of physiologically important pH values (2 < pH ≤ 7.4). Therefore, water was used for the determination of solubility. […] According to USP34, all tested compounds can be defined as practically insoluble since their solubilities are ≤100 mg/L [54].
Solubility of tested compounds was investigated at room temperature. Compounds were weighed on a scale (5 mg each) and transferred to flasks. In a stepwise procedure, increasing volumes of distilled water were added, and after each addition of an amount of water, the mixture was placed on an ultrasound bath for 5 min and visually inspected for undissolved parts of the sample. When no […] could be observed, the mixture was transferred into a glass cylinder, and opalescence was compared with water. If the mixture was not more opalescent than the solvent, the solvation was considered to be achieved. Solubility of a compound is defined according to the amount of solvent required to dissolve 1 mg.

T1 sequence (P02768 25-609): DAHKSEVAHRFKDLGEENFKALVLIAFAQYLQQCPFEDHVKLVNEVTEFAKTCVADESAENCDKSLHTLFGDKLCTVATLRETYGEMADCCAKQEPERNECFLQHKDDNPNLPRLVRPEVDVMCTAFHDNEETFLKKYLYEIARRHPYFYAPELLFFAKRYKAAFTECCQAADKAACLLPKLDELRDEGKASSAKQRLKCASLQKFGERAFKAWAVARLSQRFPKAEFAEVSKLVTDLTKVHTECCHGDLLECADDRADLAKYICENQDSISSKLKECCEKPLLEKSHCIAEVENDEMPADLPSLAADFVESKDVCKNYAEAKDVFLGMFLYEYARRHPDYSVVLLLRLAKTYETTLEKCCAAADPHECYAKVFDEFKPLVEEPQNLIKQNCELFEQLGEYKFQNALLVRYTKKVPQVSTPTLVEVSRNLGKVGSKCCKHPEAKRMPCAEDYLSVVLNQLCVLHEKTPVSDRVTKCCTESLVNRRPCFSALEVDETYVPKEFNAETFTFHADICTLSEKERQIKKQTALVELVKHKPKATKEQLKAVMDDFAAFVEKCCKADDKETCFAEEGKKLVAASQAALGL

Which results are given for CC(=O)N(O)C(C)c1ccc(CC(C)C)cc1 (stereo not drawn) [Compound 11]?
Membrane retention (R) ([1]; PAMPA): 24%; Papp at 5 h, 0.05 mM ([1]; PAMPA): 1460 nm/s; –logPe [1]: 3.84 ± 0.05; ΔE, DPV peak potential shift after interaction with HSA [2]: 7 mV; fraction unbound at 0.05 mmol/L [2]: 0.292; The Decrease in Peak Area (%) [3]: 1.63 (p = 0.073) %; Peak Area, t [3]: 10.83 ± 0.03; Peak Area, t0 [3]: 11.01 ± 0.02; solubility at 5 min [4]: 0.0194 mg/mL (≈ 82.2 µM)

Which Papp at 5 h, 0.05 mM ([1]; PAMPA) does the source give for CC(NC(=O)NO)c1ccc(-c2ccccc2)c(F)c1 (stereo not drawn) [Compound 2] here?
Its Papp at 5 h, 0.05 mM is 176 nm/s.

What about the “ΔE, DPV peak potential shift after interaction with HSA” value (shortened to “ΔE, DPV peak potential shift”) [2] of the same compound?
The value was 30 mV.

What about the fraction unbound at 0.05 mmol/L [2] of the same compound?
The fraction unbound at 0.05 mmol/L was 0.198.

What about the “The Decrease in Peak Area (%)” value [3] of the same compound?
The value was 0.34 (p = 0.4501) %.

And the “Peak Area, t” value [3]?
The value was 6.55 ± 0.07.

What about the “Peak Area, t0” value [3] of the same compound?
The value was 6.57 ± 0.12.

What about the solubility at 5 min [4] of the same compound?
Its solubility at 5 min is 0.0143 mg/mL (≈ 52.1 µM).

With O=C(NO)NCc1ccccc1Nc1c(Cl)cccc1Cl [Compound 3] as the compound, how does the Papp at 5 h, 0.05 mM ([1]; PAMPA) read?
The Papp at 5 h, 0.05 mM was 773 nm/s.

What about the “–logPe” value [1] of the same compound?
Its value is 4.11 ± 0.02.

What about the “ΔE, DPV peak potential shift” value [2] of the same compound?
The value was 29 mV.

And the fraction unbound at 0.05 mmol/L [2]?
The fraction unbound at 0.05 mmol/L was 0.198.

What about the “The Decrease in Peak Area (%)” value [3] of the same compound?
The value was 2.33% and 2.33 (p = 0.0159) %.

What about the “Peak Area, t” value [3] of the same compound?
The value was 6.27 ± 0.10.

And the “Peak Area, t0” value [3]?
The value was 6.42 ± 0.11.

What about the solubility at 5 min [4] of the same compound?
The solubility at 5 min was 0.00545 mg/mL (≈ 16.7 µM).

Which results are given for COc1ccc2cc(C(C)N(O)C(C)=O)ccc2c1 (stereo not drawn) [Compound 12]?
Papp at 5 h, 0.05 mM ([1]; PAMPA): 1570 nm/s; –logPe [1]: 3.81 and 3.81 ± 0.04; ΔE, DPV peak potential shift after interaction with HSA [2]: 13 mV; fraction unbound at 0.05 mmol/L [2]: 0.296; The Decrease in Peak Area (%) [3]: 0.24 (p = 0.4399) %; Peak Area, t [3]: 48.54 ± 0.39; Peak Area, t0 [3]: 48.66 ± 0.49; solubility at 5 min [4]: 0.0118 mg/mL (≈ 45.4 µM)

With COc1ccc2c(c1)c(CNC(=O)NO)c(C)n2C(=O)c1ccc(Cl)cc1 [Compound 1] as the compound, how does the Papp at 5 h, 0.05 mM ([1]; PAMPA) read?
The Papp at 5 h, 0.05 mM was 429 nm/s.

And the “ΔE, DPV peak potential shift” value [2]?
Its value is 34 mV.

What about the fraction unbound at 0.05 mmol/L [2] of the same compound?
The fraction unbound at 0.05 mmol/L was 0.267.

What about the “The Decrease in Peak Area (%)” value [3] of the same compound?
The value was 0.07 (p = 0.2839) ^a %.

What about the “Peak Area, t” value [3] of the same compound?
The value was 8.27 ± 0.00.

And the “Peak Area, t0” value [3]?
Its value is 8.28 ± 0.01.

And the solubility at 5 min [4]?
The solubility at 5 min was 0.0015 mg/mL (≈ 3.87 µM).
